# The supplement of paper PMC11208160
# Experiment: recombinant UMI read abundance after kanamycin selection (control-corrected) (log10(CPM+1)); higher = more efficient recombination; extreme values may be limits of the assay; sequences stand for … in AGTGCAGAGAAAATCGGCCAGTTTTCTCTGCCTGCAGTCCGCATGCCGTGGGACCCCTTGGGTTCTAACCTGTTGCCTAGATTTATGCAGCGGACTGCCTTTCTCCCAAAGTGATAAACCGG…AGGTTGGTTTCACT; site = the 11-nt donor
# How it was run: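 After plating on IPTG (0.07 mM) plus kanamycin, or unselected, in two replicates, recombinant UMIs were PCR-amplified across the donor–target junction and sequenced. The cells were Escherichia coli co-electroporated with a UMI-tagged donor and donor-binding-loop pair library and a target plasmid with a fixed target and T7-inducible IS621 bridge recombinase. Values are log10(CPM+1), with CPM averaged over replicates and scaled by control-derived factors.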
row,Sequence,recombinant UMI read abundance (log10)
1,AGCTTAGCATGGACCGGTTTTCCCGGTAATCCGTATTTGGG (site AGCTCAGCTCC),0.0187
2,AGCTTAGCATGGACCGGTTTTCCCGGTAATCCGTATTTGGG (site AGCTGAGCTCC),0.034
3,AGCTTAGCATGGACCGGTTTTCCCGGTAATCCGTATTTGGG (site AGCTTAGCTCC),0.0198
4,AGGAAACCATGGACCGGTTTTCCCGGTAATCCGTATTTGTT (site AGGAAACCTAA),0
5,AGGAAACCATGGACCGGTTTTCCCGGTAATCCGTATTTGTT (site CGGAATCCTAA),0
6,AGGAACACATGGACCGGTTTTCCCGGTAATCCGTATTTGAA (site AGGAACACTTT),2.29
7,AGGAACACATGGACCGGTTTTCCCGGTAATCCGTATTTGAA (site AGGAAGACTTG),0
8,AGGAACCCATGGACCGGTTTTCCCGGTAATCCGTATTTGCA (site AGGAACCCTTG),0.786
9,AGGAACCCATGGACCGGTTTTCCCGGTAATCCGTATTTGCA (site AGGAAGACTTG),0
10,AGGAAGACATGGACCGGTTTTCCCGGTAATCCGTATTTGAA (site AGGAAGACTTA),0.985
11,AGGAAGACATGGACCGGTTTTCCCGGTAATCCGTATTTGAA (site AGGAAGACTTC),0.592
12,AGGAAGACATGGACCGGTTTTCCCGGTAATCCGTATTTGAA (site AGGAAGACTTG),0.298
13,AGGAAGACATGGACCGGTTTTCCCGGTAATCCGTATTTGAA (site AGGAAGACTTT),2.37
14,AGGAAGACATGGACCGGTTTTCCCGGTAATCCGTATTTGCA (site AAGAACACTTG),0
15,AGGAAGACATGGACCGGTTTTCCCGGTAATCCGTATTTGCA (site AAGAAGACTGG),0
16,AGGAAGACATGGACCGGTTTTCCCGGTAATCCGTATTTGCA (site AAGAAGACTTG),1.06
17,AGGAAGACATGGACCGGTTTTCCCGGTAATCCGTATTTGCA (site AAGAAGACTTT),0.0128
18,AGGAAGACATGGACCGGTTTTCCCGGTAATCCGTATTTGCA (site AAGAAGCCTTG),0
19,AGGAAGACATGGACCGGTTTTCCCGGTAATCCGTATTTGCA (site AAGAGGACTTG),0.101

row,Sequence,recombinant UMI read abundance (log10)
1,AGGAAGACATGGACCGGTTTTCCCGGTAATCCGTATTTGCA (site AAGTAGACTTG),1.23
2,AGGAAGACATGGACCGGTTTTCCCGGTAATCCGTATTTGCA (site AATAAGACTTG),1.43
3,AGGAAGACATGGACCGGTTTTCCCGGTAATCCGTATTTGCA (site ACAAAGACTTG),1.25
4,AGGAAGACATGGACCGGTTTTCCCGGTAATCCGTATTTGCA (site ACGAAAACTTG),0
5,AGGAAGACATGGACCGGTTTTCCCGGTAATCCGTATTTGCA (site ACGAAGACTCG),0.0101
6,AGGAAGACATGGACCGGTTTTCCCGGTAATCCGTATTTGCA (site ACGAAGACTTA),0.00527
7,AGGAAGACATGGACCGGTTTTCCCGGTAATCCGTATTTGCA (site ACGAAGACTTG),0.832
8,AGGAAGACATGGACCGGTTTTCCCGGTAATCCGTATTTGCA (site ACGAAGTCTTG),0
9,AGGAAGACATGGACCGGTTTTCCCGGTAATCCGTATTTGCA (site ACGATGACTTG),0
10,AGGAAGACATGGACCGGTTTTCCCGGTAATCCGTATTTGCA (site ACGGAGACTTG),2.51
11,AGGAAGACATGGACCGGTTTTCCCGGTAATCCGTATTTGCA (site AGAAAAACTTG),0
12,AGGAAGACATGGACCGGTTTTCCCGGTAATCCGTATTTGCA (site AGAAAGACTCG),0.0197
13,AGGAAGACATGGACCGGTTTTCCCGGTAATCCGTATTTGCA (site AGAAAGACTTA),0.795
14,AGGAAGACATGGACCGGTTTTCCCGGTAATCCGTATTTGCA (site AGAAAGACTTG),2.32
15,AGGAAGACATGGACCGGTTTTCCCGGTAATCCGTATTTGCA (site AGAAAGTCTTG),0.0125
16,AGGAAGACATGGACCGGTTTTCCCGGTAATCCGTATTTGCA (site AGAATGACTTG),0.777
17,AGGAAGACATGGACCGGTTTTCCCGGTAATCCGTATTTGCA (site AGAGAGACTTG),1.79
18,AGGAAGACATGGACCGGTTTTCCCGGTAATCCGTATTTGCA (site AGCAAGACTAG),0.0137
19,AGGAAGACATGGACCGGTTTTCCCGGTAATCCGTATTTGCA (site AGCAAGACTTC),0.00298

row,Sequence,recombinant UMI read abundance (log10)
1,AGGAAGACATGGACCGGTTTTCCCGGTAATCCGTATTTGCA (site AGCAAGACTTG),0.723
2,AGGAAGACATGGACCGGTTTTCCCGGTAATCCGTATTTGCA (site AGCAAGGCTTG),0.00883
3,AGGAAGACATGGACCGGTTTTCCCGGTAATCCGTATTTGCA (site AGCAATACTTG),0
4,AGGAAGACATGGACCGGTTTTCCCGGTAATCCGTATTTGCA (site AGCACGACTTG),0
5,AGGAAGACATGGACCGGTTTTCCCGGTAATCCGTATTTGCA (site AGCCAGACTTG),0.654
6,AGGAAGACATGGACCGGTTTTCCCGGTAATCCGTATTTGCA (site AGGAAAACTCG),0
7,AGGAAGACATGGACCGGTTTTCCCGGTAATCCGTATTTGCA (site AGGAAAACTTA),0
8,AGGAAGACATGGACCGGTTTTCCCGGTAATCCGTATTTGCA (site AGGAAAACTTG),0.57
9,AGGAAGACATGGACCGGTTTTCCCGGTAATCCGTATTTGCA (site AGGAAATCTTG),0
10,AGGAAGACATGGACCGGTTTTCCCGGTAATCCGTATTTGCA (site AGGAACACTGG),0.014
11,AGGAAGACATGGACCGGTTTTCCCGGTAATCCGTATTTGCA (site AGGAACACTTG),1.51
12,AGGAAGACATGGACCGGTTTTCCCGGTAATCCGTATTTGCA (site AGGAACACTTT),0.0161
13,AGGAAGACATGGACCGGTTTTCCCGGTAATCCGTATTTGCA (site AGGAACCCTTG),0
14,AGGAAGACATGGACCGGTTTTCCCGGTAATCCGTATTTGCA (site AGGAAGACTAC),0.00471
15,AGGAAGACATGGACCGGTTTTCCCGGTAATCCGTATTTGCA (site AGGAAGACTAG),0.102
16,AGGAAGACATGGACCGGTTTTCCCGGTAATCCGTATTTGCA (site AGGAAGACTCA),0.0159
17,AGGAAGACATGGACCGGTTTTCCCGGTAATCCGTATTTGCA (site AGGAAGACTCG),0.784
18,AGGAAGACATGGACCGGTTTTCCCGGTAATCCGTATTTGCA (site AGGAAGACTGG),1.34
19,AGGAAGACATGGACCGGTTTTCCCGGTAATCCGTATTTGCA (site AGGAAGACTGT),0
